Test results from ChEMBL document CHEMBL4000212, “New furoxan derivatives for the treatment of ocular hypertension” (Bioorg Med Chem Lett, 2017).

Experiments:
[1] = tested on: Oryctolagus cuniculus; test: Antiglaucoma activity in hypertonic saline-induced New Zealand white rabbit transient ocular hypertensive model assessed as IOP lowering efficacy at 30 uL administered topically immediately after hypertonic saline injection measured at 60 mins post dose; format: functional
[2] = tested on: Oryctolagus cuniculus; test: Antiglaucoma activity in hypertonic saline-induced New Zealand white rabbit transient ocular hypertensive model assessed as IOP lowering efficacy at 30 uL administered topically immediately after hypertonic saline injection measured at 120 mins post dose; format: functional
[3] = Induction of NO release assessed as nitrite formation at 0.1 mM in phosphate buffer saline at pH 7.4 in presence of 0.5 mM L-cysteine measured after 1 hr by Griess assay
[4] = Ionization constant, pKa of the compound by potentiometric titration; format: physicochemical
[5] = n-Octanol-water distribution coefficient, log D of the compound at pH 7.4 after 20 mins by UV-spectrometric based shake-flask method; format: physicochemical
[6] = Induction of NO release assessed as nitrite formation at 0.1 mM in phosphate buffer saline at pH 7.4 in absence of L-cysteine measured after 1 hr by Griess assay
[7] = Solubility in pH 6 phosphate buffer /5% cremophor EL/0.3% DMSO/0.2 mg/ml bac solution at 10 mg incubated in magnetic stirrer for 1 hr; format: physicochemical; settings: pH 6, 1 h
[8] = tested on: Oryctolagus cuniculus; test: Antiglaucoma activity in hypertonic saline-induced New Zealand white rabbit transient ocular hypertensive model assessed as IOP lowering efficacy at 30 uL administered topically immediately after hypertonic saline injection measured at 30 mins post dose; format: functional
[9] = Ionization constant of the compound assessed as ionization level by potentiometric titration; format: physicochemical
[10] = Solubility of the compound in water at 5 mg incubated in magnetic stirrer for 1 hr; format: physicochemical
[11] = Induction of NO release assessed as nitrite formation at 0.1 mM in phosphate buffer saline at pH 7.4 in presence of 5 mM L-cysteine measured after 1 hr by Griess assay
[12] = tested on: Oryctolagus cuniculus; test: Antiglaucoma activity in hypertonic saline-induced New Zealand white rabbit transient ocular hypertensive model assessed as IOP lowering efficacy at 0.5% administered topically immediately after hypertonic saline injection measured at 60 mins post dose; format: functional
[13] = tested on: Oryctolagus cuniculus; test: Antiglaucoma activity in hypertonic saline-induced New Zealand white rabbit transient ocular hypertensive model assessed as IOP lowering efficacy at 0.5% administered topically immediately after hypertonic saline injection measured at 120 mins post dose; format: functional
[14] = tested on: Oryctolagus cuniculus; test: Antiglaucoma activity in hypertonic saline-induced New Zealand white rabbit transient ocular hypertensive model assessed as IOP lowering efficacy at 30 uL administered topically immediately after hypertonic saline injection measured at 240 mins post dose; format: functional

Structure (SMILES) | pKa [4] | logD at 20 min [5] | solubility [7] | Activity [9] [%] | solubility at 1 h [10] [mg/mL] | Activity [1] [mmHg] | Activity [2] [mmHg] | Activity [3] [%] | Activity [6] [%] | Activity [8] [mmHg] | Activity [11] [%] | Activity [12] [mmHg] | Activity [13] [mmHg] | Activity [14] [mmHg]
CCOC(=O)/N=c1\c[n+](N2CCOCC2)[n-]o1 |  |  |  |  |  | -7.83 | -8.17 |  |  |  |  |  |  | 
N#Cc1c(CN2CCNCC2)no[n+]1[O-].O=C(O)C(F)(F)F | 2 to 8.81 | -1.32 | Soluble | 96.3 | > 30 | -11.5 | -10.6 | 15.4 | 0 |  |  |  |  | 
CN(C)CCCN(C)Cc1no[n+]([O-])c1C#N.O=C(O)C(F)(F)F | 3.34 to 9.3 | -0.73 | Soluble | 98.8 | > 30 |  |  | 13.5 | 0 |  | 40.1 |  |  | 
Cc1c(OCCN(C)C)no[n+]1[O-].O=C(O)C(=O)O | 7.9 | -0.28 | Soluble | 76 | > 30 | -14 | -9 | 0 | 0 |  | < 1 |  |  | 
CC(C)N(Cc1no[n+]([O-])c1C#N)C(C)C.CS(=O)(=O)O | 5.35 | 2.35 | Soluble | 0.9 | > 30 |  |  | 16.5 | 0 |  | 41.9 |  |  | 
CC(C)(C)NC[C@H](O)COc1nsnc1N1CCOCC1 [TIMOLOL] |  |  |  |  |  |  |  |  |  |  |  | -7.17 | -7.33 | 
NC(=O)c1c(CO)no[n+]1[O-] |  | -1.48 | Soluble |  | > 30 | -4.8 | -2.9 | 1.8 | 0 |  | 12 |  |  | 
CC(C)N(Cc1no[n+]([O-])c1C(N)=O)C(C)C | 6.62 | 1.4 | Insoluble | 14.2 | < 0.5 |  |  | 1.2 | 0 |  | 11.6 |  |  | 
CN(C)Cc1no[n+]([O-])c1C(N)=O | 6.57 | -0.03 | Soluble | 12.9 | > 30 | -12 | -8.6 | 1.4 | 0 |  | 12.8 |  |  | 

Further lines, with some results ahead:

pKa [4] | logD at 20 min [5] | solubility [7] | Activity [9] [%] | solubility at 1 h [10] [mg/mL] | Structure (SMILES) | Activity [1] [mmHg] | Activity [2] [mmHg] | Activity [3] [%] | Activity [6] [%] | Activity [8] [mmHg] | Activity [11] [%] | Activity [12] [mmHg] | Activity [13] [mmHg] | Activity [14] [mmHg]
5.46 | 2.74 | Soluble | 1.1 | 2 | CCCN(CCC)Cc1no[n+]([O-])c1C#N.O=C(O)C(=O)O | -5.3 | -2.8 | 18.1 | 0 | -8.5 | 42.3 |  |  | 
5.79 | 1.31 | Soluble | 2.4 | > 30 | CCN(C)Cc1no[n+]([O-])c1C#N.O=C(O)C(=O)O |  |  | 17.5 | 0 |  | 40.9 |  |  | 
2 to 5.38 | 0.97 | Insoluble | 0.9 | < 0.5 | N#Cc1c(CN2CCN(c3ncccn3)CC2)no[n+]1[O-] |  |  | 14.4 | 0 |  | 41.5 |  |  | 
8.7 | -1.54 | Soluble | 95.2 | > 30 | Cc1c(OCCN)no[n+]1[O-].O=C(O)C(=O)O | -11.9 | -8.8 | 0 | 0 |  | < 1 |  |  | 
5.58 | 2.62 | Insoluble | 1.5 | < 0.5 | CCN(Cc1ccccc1)Cc1no[n+]([O-])c1C#N.O=C(O)C(=O)O |  |  | 16.4 | 0 |  | 41.7 |  |  | 
5.82 | 0.87 | Soluble | 2.6 | > 30 | CN(C)Cc1no[n+]([O-])c1C#N.O=C(O)C(=O)O | -14.4 | -11.2 | 16.1 | 0 |  | 43.9 |  |  | -8.6
4.01 | 2.31 | Insoluble | < 0.1 | < 0.5 | N#Cc1c(CN2CCC(Br)CC2)no[n+]1[O-].O=C(O)C(=O)O |  |  | 15.9 | 0 |  | 40.5 |  |  | 
5.8 | 1.98 | Soluble | 2.5 | > 30 | CCN(CC)Cc1no[n+]([O-])c1C#N.O=C(O)C(=O)O | -8.9 | -4.8 | 15.5 | 0 |  | 41.3 |  |  | 
